Values joined by “and” are separate entries in the source; they are usually repeats but may differ in a detail not shown here. Equal values may be shown once. Read-outs that look alike come from different tables or passages of the source.
Tests used:
[1] = system: purified firefly luciferase (luc) expressed from E. coli; conditions: cited from earlier work; for λmax (lit.): literature value
[2] = system: purified firefly luciferase (luc) expressed from E. coli; assay: Bioluminescence emission scans; type: biochemical, Photinus pyralis; conditions: for bioluminescence emission wavelength: FIG. 7, 10 nM luciferase with 100 μM substrate; for λmax: bioluminescence emission with luciferase
Protocol: FIG. 7 is a bioluminescence emission spectrum for 10 nM luciferase with 100 μM D-thioluciferin.
Purified luciferase in enzyme buffer was rapidly injected into a cuvette containing substrate in substrate buffer to a final enzyme concentration of 100 nM and a final substrate concentration of 10 μM. The emission from 400 to 800 nm was recorded in a fluorimeter with closed excitation slits 10 s after injection.

[3] = literature value; cited from earlier work
[4] = system: WT luciferase (Ppy Luc); assay: Burst kinetics assays / rates of reduction in luminescence; type: biochemical, Photinus pyralis
Protocol: FIG. 9 is a burst kinetics profile of purified 10 nM luciferase treated with 100 μM D-thioluciferin.
[…] […] Data acquisition was performed with SIS for 2020n v1.9.0 software. Data are reported as Relative Light Units (RLU). To correct for the wavelength sensitivity of the PMT in the 20/20n, total flux was also measured using the IVIS-100 as described above with a final enzyme concentration of 10 nM and a final substrate concentration of 250 μM. […] The correction factor of each enzyme/substrate pair was calculated by dividing the normalized IVIS data by the normalised 20/20n data. All 20/20n data were then multiplied by their respective correction factors.

[5] = system: purified wild type (WT) luciferase (Photinus pyralis (luciferase) [Ppy Luc]); conditions: cited from earlier work
[6] = system: purified wild type (WT) luciferase (Photinus pyralis (luciferase) [Ppy Luc]); assay: Purified protein luminescence assays (Michaelis-Menten kinetics, relative emission intensity); type: biochemical; conditions: for Vmax / Km: Michaelis-Menten fit; for Km: apparent Km, WT luciferase, read-out: Km (App.); for luminescence output when treated with luciferase: 0.1 μM solution, luciferase in enzyme buffer, 10 nM
Protocol: FIG. 10 is a relative luminescence emission intensity of the core luciferins (6-hydroxy, 6-amino, 6-thiol) at 0.1 μM substrate concentration and at a final luciferase concentration of 10 nM.
FIG. 11 illustrates luminescence output of 0.1 μM of protected D-thioluciferin sulfide, D-thioluciferin homodisulfide, and free D-thioluciferin at a final luciferase concentration of 10 nM (control readings were recorded for substrates in the absence of the luc enzyme). The RLU were determined in triplicate and are represented as the mean±SEM.
FIG. 13 is a Michaelis-Menten graph for D-Thioluciferin. […] The assays were performed in triplicate and are represented as the mean and each curve was fit to the Michaelis-Menten equation by nonlinear regression (GraphPad 5.0) to determine apparent Km and Vmax.
Luminescence assays were initiated by adding 30 μL of purified luciferase in enzyme buffer (20 mM Tris [pH 7.4], 0.1 mM EDTA, 1 mM TCEP, and 0.8 mg/mL BSA) to 30 μL 2× substrate in substrate buffer (20 mM Tris [pH 7.4], 0.1 mM EDTA, 8 mM MgSO4, and 4 mM ATP) in a black 96-well plate. Imaging was performed one minute after enzyme addition using a Xenogen® IVIS-100® at a final enzyme concentration of 10 nM and final substrate concentrations ranging from 0.122 to 250 μM. Data acquisition and analysis was performed with Living Image® software. Data are reported as total flux (p/s) for each ROI corresponding to each well of the 96-well plate.

[7] = system: purified firefly luciferase (10 nM) expressed from E. coli; assay: Inhibition of firefly luciferase by D-thioluciferin sulfide (thioacrylate); type: biochemical, Photinus pyralis; conditions: D-thioluciferin 10 μM, increasing sulfide
Protocol: FIG. 14 is a bar graph showing potential inhibitory effects of firefly luciferase by D-thioluciferin sulfide (thioacrylate). D-thioluciferin (10 μM) was treated with purified firefly luciferase (10 nM) expressed from E. coli and the luminescence recorded in the absence and presence of the sulifide.

[8] = Fluorescence spectrophotometry (excitation emission spectra); type: physicochemical; conditions: for fluorescence emission intensity: excitation at 390 nm, FIG. 15
Protocol: The free D-thioluciferin has a greater intensity relative to the sulfide which is promising for further sensor development.
Excitation and emission spectra were recorded on a Varian Cary Eclipse fluorometer equipped with a regulated temperature cell holder and Hellma, Suprasil® quartz fluorescence cuvettes of 10 mm pathlength and 1.5 mL volume capacity. Emission spectra were recorded at an excitation wavelength corresponding to previously recorded absorption maxima. Samples were prepared as a 0.1 mM DMSO solution, unless otherwise stated, and were scanned from 200 nm to 800 nm (Ex. Slit/Em. Slit 5 nm) at a scan rate of 600.00 nm/mn. Data were analysed using Scan Software Version 1.1.

[9] = measured for 15 seconds post-specified time
[10] = FIG. 10, 0.1 μM substrate, 10 nM luciferase

Compound | λmax (lit.) [1] | bioluminescence emission wavelength [2] | λmax [2] | Fluorescence (lit.) [3] | time post-addition of rapid decrease in luminescent activity [4] | Rate 5 min post-addition (rate of reduction in luminescence) [4, 9] | Rate 20 minutes post addition (rate of reduction in luminescence) [4, 9] | emission signal, fold less intense compared to D-luciferin [6, 10] | Vmax ([6]; 10 nM luciferase) | Km [6] | luminescence output when treated with luciferase [6] | ability to produce bioluminescence (luciferase substrate) ([6]; FIG. 11) | fluorescence emission intensity [8] | other results
Nc1ccc2nc(C3=N[C@@H](C(=O)O)CS3)sc2c1 [D-aminoluciferin, (S)-2-(6-aminobenzo[d]thiazol-2-yl)-4,5-dihydrothiazole-4-carboxylic acid] | 594 nm | 593 nm | 597 nm | 517 nm | 1 min | 1.216 ± 0.1305 RLU/s | 0.1510 ± 0.007506 RLU/s | 100 fold | 13 ± 2.2 RLU/s | 0.39 ± 0.08 µM |  |  |  | Vmax (lit.) ([5]; literature value): 169 ± 2.6 photons/min; Km ([5]; literature value, read-out: Km (lit)): 0.62 ± 0.05 µM; Km ([5]; previously calculated, comparison, read-out: Km previously calculated): 0.39 to 0.69 µM
O=C(O)[C@H]1CSC(c2nc3ccc(O)cc3s2)=N1 [D-luciferin, (S)-2-(6-hydroxybenzo[d]thiazol-2-yl)-4,5-dihydrothiazole-4-carboxylate] | 551 nm | 547 nm | 553 nm | 528 nm | 10 min | 9.300 ± 0.9815 RLU/s | 0.3400 ± 0.05773 RLU/s |  | 57 ± 13 RLU/s | 8.3 µM and 8 µM |  |  |  | relative emission λmax ([1]; background statement): 594 nm; bioluminescence emission wavelength ([2]; listed as D-Luciferin): 557 nm; relative luminescence emission intensity, fold greater than both D-aminoluciferin and D-thioluciferin [6, 10]: 100 fold
O=C(O)C1CSC(c2nc3ccc(SSc4ccc5nc(C6=NC(C(=O)O)CS6)sc5c4)cc3s2)=N1 [D-thioluciferin disulfide] |  |  |  |  |  |  |  |  |  |  | much higher luminescence output than its corresponding control | neither of which appeared to be bioluminescent substrates |  | 
O=C(/C=C/Sc1ccc2nc(C3=N[C@@H](C(=O)O)CS3)sc2c1)OCc1ccccc1 [D-thioluciferin thioacrylate, (S,E)-2-(6-((3-(benzyloxy)-3-oxoprop-1-en-1-yl)thio)benzo[d]thiazol-2-yl)-4,5-dihydrothiazole-4-carboxylic acid] |  |  |  |  |  |  |  |  |  |  | negligible | neither of which appeared to be bioluminescent substrates | only weakly fluorescent | inhibition of luciferase ([7]; FIG. 14): strongly inhibitory; inhibition of luciferase ([7]; FIG. 14, listed as D-thioluciferin sulfide (thioacrylate)): decrease in emission intensity with increasing concentration of the sulfide
O=C(O)[C@H]1CSC(c2nc3ccc(S)cc3s2)=N1 [D-thioluciferin, (S)-2-(6-mercaptobenzo[d]thiazol-2-yl)-4,5-dihydrothiazole-4-carboxylic acid] |  | 599 nm and 600 nm | 599 nm |  |  | 0.0067 RLU/s | 0.0022 RLU/s | 100 fold | 0.7597 ± 0.1071 RLU/s and 0.6661 ± 0.1522 RLU/s | 0.117 µM and 0.1 µM |  |  | strong fluorescence emission | period over which light of constant intensity is sustained [4]: 20 min; burst kinetics profile ([4]; FIG. 9, 10 nM luciferase, 100 μM substrate): robust initial burst of light followed by sustained light output of much lower intensity; Rate 1 min post-peak emission (rate of reduction in luminescence) [4, 9]: 4.929 ± 0.1584 RLU/s; emission, fold greater over the background [6]: > 100 fold; luminescence output, fold greater than protected thioacrylate (sulfide) ([6]; FIG. 11, 0.1 μM, 10 nM luciferase): 90 fold; Km ([6]; listed as D-Thioluciferin): 0.098 ± 0.0147 µM; Fluorescence ([8]; fluorescence emission): 500 nm

From patent US11149034B2, “Derivatives of luciferin and methods for their synthesis” (UNIVERSITY OF CAPE TOWN, priority 2017, dated 2021)
